# Measurements from patent US20260242419A1, “A CYCLIC PEPTIDE FOR TRAPPING INTERLEUKIN-1 BETA” (Merck Sharp & Dohme LLC, priority 2023, published 2026).
# Like-named read-outs stand apart in the source and are kept apart here. Starred links: 1 amine or outer side, 2 acyl side, 3 side chain; linkers in the order of their positions; H or OH if unused. Non-standard residues stand in square brackets, D forms with d. Residues, ends and D or L forms follow the SMILES beside them. Trp(4-Cl)(βS-Me) = C[C@@H](c1c[nH]c2cccc(Cl)c12)[C@H](N)C(=O)O; dPro(4R-(4-pyridylmethyl)) = O=C(O)[C@H]1C[C@@H](Cc2ccncc2)CN1; Trp(βS-Me,4-F) = C[C@@H](c1c[nH]c2cccc(F)c12)[C@H](N)C(=O)O; Bip(4'-COOH) = N[C@@H](Cc1ccc(-c2ccc(C(=O)O)cc2)cc1)C(=O)O; Ala(1-bicyclo(1.1.1)pentyl) = N[C@@H](CC12CC(C1)C2)C(=O)O; X21 = O=C(O)c1ccc(-c2ccc(C[C@H](N[*:1])C(=O)[*:2])cn2)cc1; dPro(4R-Bzl(4-F)) = O=C(O)[C@H]1C[C@@H](Cc2ccc(F)cc2)CN1; X4 = O=C([C@H]1[C@@H](Cc2ccncc2)CCN1[*:1])[*:2]; Ala(morpholin-4-yl) = N[C@@H](CN1CCOCC1)C(=O)O; Ala(pyrimidin-5-yl) = N[C@@H](Cc1cncnc1)C(=O)O; Phe(4-CONH2) = NC(=O)c1ccc(C[C@H](N)C(=O)O)cc1; Phe(4-COOH) = N[C@@H](Cc1ccc(C(=O)O)cc1)C(=O)O; Bip = N[C@@H](Cc1ccc(-c2ccccc2)cc1)C(=O)O; Pro(cis-4-F) = O=C(O)[C@@H]1C[C@H](F)CN1; Ala(4-THP) = N[C@@H](CC1CCOCC1)C(=O)O; AEF = NCCOc1ccc(C[C@H](N)C(=O)O)cc1; cisHyp = O=C(O)[C@@H]1C[C@H](O)CN1; d(αMeD) = C[C@@](N)(CC(=O)O)C(=O)O; 4Pal = N[C@@H](Cc1ccncc1)C(=O)O; aThr = C[C@H](O)[C@H](N)C(=O)O; d(αMeS) = C[C@@](N)(CO)C(=O)O; NMeDab = CN[C@@H](CCN)C(=O)O; Dab = NCC[C@H](N)C(=O)O; Dap = NC[C@H](N)C(=O)O; Aib = CC(C)(N)C(=O)O; Sar = CNCC(=O)O
# Molecular target: T1, IL-1β (Homo sapiens, UniProt P01584)
# T1 construct: purchased BioLegend 579404
# T1 sequence (P01584 117-269): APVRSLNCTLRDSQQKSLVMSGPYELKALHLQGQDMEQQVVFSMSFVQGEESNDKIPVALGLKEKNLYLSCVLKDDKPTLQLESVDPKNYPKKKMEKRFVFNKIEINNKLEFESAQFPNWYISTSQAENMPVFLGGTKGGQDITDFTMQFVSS
# Assay: IL-6 assay in MRC5 cells: inhibition of IL-1β induced IL-6 secretion (AlphaLISA)
# Type: cell-based
# Conditions: inhibition of IL-1β induced IL-6 secretion in MRC5 cells, read-out: MRC5 IC50
# How it was run: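 Compound was pre-incubated 1 h at ambient temperature with recombinant human IL-1β at 2λ EC80 before adding human lung fibroblast MRC5 cells (3000/well) in EMEM with 0.025% BSA. After overnight culture at 37 °C, 5% CO2, secreted IL-6 in conditioned medium was measured by AlphaLISA; IC50 from 4-parameter logistic fits.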
Structure (SMILES),IC50 [pM],IC50 (compound pre-incubated 1 hour with recombinant human IL-1β) [pM]
"C[C@@H](c1c[nH]c2cccc(F)c12)[C@@H]1NC(=O)[C@@H]2C[C@H](F)CN2C(=O)CNC(=O)[C@H](Cc2ccc(C(=O)O)cc2)NC(=O)[C@H](CC23CC(C2)C3)NC(=O)[C@H](Cc2ccc(-c3ccc(C(=O)O)cc3)cc2)NC(=O)[C@H]2C[C@@H](Cc3ccncc3)CN2C(=O)CNC(=O)[C@H](CN)NC(=O)[C@H](CCC(N)=O)NC(=O)[C@H](Cc2ccncc2)NC(=O)C(C)(C)NC(=O)[C@H](Cc2c[nH]c3ccccc23)NC(=O)[C@H](CCC(=O)O)NC(=O)C(C)(C)NC1=O [Example 48] (cyclo([4Pal]Q[Dap]G[dPro(4R-(4-pyridylmethyl))][Bip(4'-COOH)][Ala(1-bicyclo(1.1.1)pentyl)][Phe(4-COOH)]G[Pro(cis-4-F)][Trp(βS-Me,4-F)][Aib]EW[Aib]))",27,–
"C[C@@H](c1c[nH]c2cccc(F)c12)[C@@H]1NC(=O)[C@@H]2C[C@H](F)CN2C(=O)CNC(=O)[C@H](Cc2ccc(C(=O)O)cc2)NC(=O)[C@H](Cc2ccncc2)NC(=O)[C@H](Cc2ccc(-c3ccc(C(=O)O)cc3)cc2)NC(=O)[C@H]2[C@@H](Cc3ccncc3)CCN2C(=O)CNC(=O)[C@H](CCN)NC(=O)[C@H](CCC(N)=O)NC(=O)[C@@H](CC(=O)O)NC(=O)C(C)(C)NC(=O)[C@H](Cc2c[nH]c3ccccc23)NC(=O)[C@H](CO)NC(=O)C(C)(C)NC1=O [Example 234] (cyclo([Bip(4'-COOH)][4Pal][Phe(4-COOH)]G[Pro(cis-4-F)][Trp(βS-Me,4-F)][Aib]SW[Aib][dD]Q[Dab]G[X4]))",–,24
"C[C@@H](c1c[nH]c2cccc(F)c12)[C@@H]1NC(=O)[C@@H]2C[C@H](O)CN2C(=O)CNC(=O)[C@H](Cc2ccc(C(=O)O)cc2)NC(=O)[C@H](Cc2ccncc2)NC(=O)[C@H](Cc2ccc(-c3ccc(C(=O)O)cc3)cc2)NC(=O)[C@H]2C[C@@H](Cc3ccncc3)CN2C(=O)CNC(=O)[C@H](CCN)NC(=O)[C@H](CCC(N)=O)NC(=O)[C@H](Cc2cncnc2)NC(=O)[C@@](C)(CC(=O)O)NC(=O)[C@H](Cc2c[nH]c3ccccc23)NC(=O)[C@H](CO)NC(=O)C(C)(C)NC1=O [Example 159] (cyclo([Bip(4'-COOH)][4Pal][Phe(4-COOH)]G[cisHyp][Trp(βS-Me,4-F)][Aib]SW[d(αMeD)][Ala(pyrimidin-5-yl)]Q[Dab]G[dPro(4R-(4-pyridylmethyl))]))",13,–
"C[C@@H](c1c[nH]c2cccc(F)c12)[C@@H]1NC(=O)[C@@H]2C[C@H](F)CN2C(=O)CNC(=O)[C@H](Cc2ccc(C(=O)O)cc2)NC(=O)[C@H](Cc2ccncc2)NC(=O)[C@H](Cc2ccc(-c3ccc(C(=O)O)cc3)cc2)NC(=O)[C@H]2C[C@@H](Cc3ccc(F)cc3)CN2C(=O)CNC(=O)[C@H](CCN)NC(=O)[C@H](CCC(N)=O)NC(=O)[C@H](Cc2cncnc2)NC(=O)C(C)(C)NC(=O)[C@H](Cc2c[nH]c3ccccc23)NC(=O)[C@H](CC(=O)O)NC(=O)C(C)(C)NC1=O [Example 17] (cyclo([Bip(4'-COOH)][4Pal][Phe(4-COOH)]G[Pro(cis-4-F)][Trp(βS-Me,4-F)][Aib]DW[Aib][Ala(pyrimidin-5-yl)]Q[Dab]G[dPro(4R-Bzl(4-F))]))",29,–
"CC(=O)NCCOc1ccc(C[C@@H]2NC(=O)[C@H]3C[C@@H](Cc4ccncc4)CN3C(=O)CNC(=O)[C@H](CCN)NC(=O)[C@H](CCC(N)=O)NC(=O)[C@H](CC3CCOCC3)NC(=O)[C@@](C)(CC(=O)O)NC(=O)[C@H](Cc3c[nH]c4ccccc34)NC(=O)[C@H](CO)NC(=O)C(C)(C)NC(=O)[C@H]([C@@H](C)c3c[nH]c4cccc(F)c34)NC(=O)[C@@H]3C[C@H](F)CN3C(=O)CNC(=O)[C@H](Cc3ccc(C(=O)O)cc3)NC(=O)[C@H](CC34CC(C3)C4)NC2=O)cc1 [Example 374] (cyclo([AEF](Ac)[Ala(1-bicyclo(1.1.1)pentyl)][Phe(4-COOH)]G[Pro(cis-4-F)][Trp(βS-Me,4-F)][Aib]SW[d(αMeD)][Ala(4-THP)]Q[Dab]G[dPro(4R-(4-pyridylmethyl))]))",17,–
"C[C@H](O)[C@@H]1NC(=O)[C@@](C)(CC(=O)O)NC(=O)[C@H](Cc2c[nH]c3ccccc23)NC(=O)[C@H](CO)NC(=O)C(C)(C)NC(=O)[C@H]([C@@H](C)c2c[nH]c3cccc(F)c23)NC(=O)[C@@H]2C[C@H](F)CN2C(=O)CNC(=O)[C@H](Cc2ccc(C(=O)O)cc2)NC(=O)[C@H](Cc2ccncc2)NC(=O)[C@H](Cc2ccc(-c3ccc(C(=O)O)cc3)cc2)NC(=O)[C@H]2C[C@@H](Cc3ccncc3)CN2C(=O)CN(C)C(=O)[C@H](CCN)NC(=O)[C@H](CCC(N)=O)NC1=O [Example 337] (cyclo([Bip(4'-COOH)][4Pal][Phe(4-COOH)]G[Pro(cis-4-F)][Trp(βS-Me,4-F)][Aib]SW[d(αMeD)][aThr]Q[Dab][Sar][dPro(4R-(4-pyridylmethyl))]))",22,–
"C[C@@H]1NC(=O)C(C)(C)NC(=O)[C@H]([C@@H](C)c2c[nH]c3cccc(F)c23)NC(=O)[C@@H]2C[C@H](F)CN2C(=O)CNC(=O)[C@H](Cc2ccc(C(=O)O)cc2)NC(=O)[C@H](Cc2ccncc2)NC(=O)[C@H](Cc2ccc(-c3ccc(C(=O)O)cc3)cc2)NC(=O)[C@H]2C[C@@H](Cc3ccncc3)CN2C(=O)CNC(=O)[C@H](CCN)NC(=O)[C@H](CCC(N)=O)NC(=O)[C@H](Cc2cncnc2)NC(=O)C(C)(C)NC(=O)[C@H](Cc2c[nH]c3ccccc23)NC1=O [Example 41] (cyclo([4Pal][Phe(4-COOH)]G[Pro(cis-4-F)][Trp(βS-Me,4-F)][Aib]AW[Aib][Ala(pyrimidin-5-yl)]Q[Dab]G[dPro(4R-(4-pyridylmethyl))][Bip(4'-COOH)]))",29,–
"C[C@@H](c1c[nH]c2cccc(F)c12)[C@@H]1NC(=O)[C@@H]2C[C@H](F)CN2C(=O)CNC(=O)[C@H](Cc2ccc(C(=O)O)cc2)NC(=O)[C@H](Cc2ccncc2)NC(=O)[C@H](Cc2ccc(-c3ccc(C(=O)O)cc3)nc2)NC(=O)[C@H]2C[C@@H](Cc3ccc(F)cc3)CN2C(=O)CNC(=O)[C@H](CCN)NC(=O)[C@H](CCC(N)=O)NC(=O)[C@H](Cc2cncnc2)NC(=O)C(C)(C)NC(=O)[C@H](Cc2c[nH]c3ccccc23)NC(=O)[C@H](CCC(=O)O)NC(=O)C(C)(C)NC1=O [Example 26] (cyclo([X21][4Pal][Phe(4-COOH)]G[Pro(cis-4-F)][Trp(βS-Me,4-F)][Aib]EW[Aib][Ala(pyrimidin-5-yl)]Q[Dab]G[dPro(4R-Bzl(4-F))]))",35,–
"C[C@@H](c1c[nH]c2cccc(F)c12)[C@@H]1NC(=O)[C@@H]2C[C@H](F)CN2C(=O)CNC(=O)[C@H](Cc2ccc(C(=O)O)cc2)NC(=O)[C@H](CC23CC(C2)C3)NC(=O)[C@H](Cc2ccc(-c3ccc(C(=O)O)cc3)cc2)NC(=O)[C@H]2C[C@@H](Cc3ccc(F)cc3)CN2C(=O)CNC(=O)[C@H](CCN)NC(=O)[C@H](CCC(N)=O)NC(=O)[C@H](CN2CCOCC2)NC(=O)C(C)(C)NC(=O)[C@H](Cc2c[nH]c3ccccc23)NC(=O)[C@H](CO)NC(=O)C(C)(C)NC1=O [Example 167] (cyclo([Bip(4'-COOH)][Ala(1-bicyclo(1.1.1)pentyl)][Phe(4-COOH)]G[Pro(cis-4-F)][Trp(βS-Me,4-F)][Aib]SW[Aib][Ala(morpholin-4-yl)]Q[Dab]G[dPro(4R-Bzl(4-F))]))",13,–
"C[C@@H](c1c[nH]c2cccc(F)c12)[C@@H]1NC(=O)[C@@H]2C[C@H](F)CN2C(=O)CNC(=O)[C@H](Cc2ccc(C(=O)O)cc2)NC(=O)[C@H](CC23CC(C2)C3)NC(=O)[C@H](Cc2ccc(-c3ccc(C(=O)O)cc3)nc2)NC(=O)[C@H]2C[C@@H](Cc3ccc(F)cc3)CN2C(=O)CNC(=O)[C@H](CCN)NC(=O)[C@H](CCC(N)=O)NC(=O)[C@H](CN)NC(=O)C(C)(C)NC(=O)[C@H](Cc2c[nH]c3ccccc23)NC(=O)[C@H](CCC(=O)O)NC(=O)C(C)(C)NC1=O [Example 100] (cyclo([X21][Ala(1-bicyclo(1.1.1)pentyl)][Phe(4-COOH)]G[Pro(cis-4-F)][Trp(βS-Me,4-F)][Aib]EW[Aib][Dap]Q[Dab]G[dPro(4R-Bzl(4-F))]))",74,–
"CCO[C@@H](C)[C@@H]1NC(=O)C(C)(C)NC(=O)[C@H](Cc2c[nH]c3ccccc23)NC(=O)[C@H](CO)NC(=O)C(C)(C)NC(=O)[C@H]([C@@H](C)c2c[nH]c3cccc(F)c23)NC(=O)[C@@H]2C[C@H](F)CN2C(=O)CNC(=O)[C@H](Cc2ccc(C(N)=O)cc2)NC(=O)[C@H](Cc2ccncc2)NC(=O)[C@H](Cc2ccc(OCCNC(C)=O)cc2)NC(=O)[C@H]2C[C@@H](Cc3ccncc3)CN2C(=O)CNC(=O)[C@H](CCN)N(C)C(=O)[C@H](CCC(N)=O)NC1=O [Example 381] (cyclo([4Pal][Phe(4-CONH2)]G[Pro(cis-4-F)][Trp(βS-Me,4-F)][Aib]SW[Aib][aThr](Et)Q[NMeDab]G[dPro(4R-(4-pyridylmethyl))][AEF](Ac)))",41,–
"C[C@@H](c1c[nH]c2cccc(F)c12)[C@@H]1NC(=O)[C@@H]2C[C@H](F)CN2C(=O)CNC(=O)[C@H](Cc2ccc(C(=O)O)cc2)NC(=O)[C@H](Cc2ccncc2)NC(=O)[C@H](Cc2ccc(-c3ccccc3)cc2)NC(=O)[C@H]2C[C@@H](Cc3ccncc3)CN2C(=O)CNC(=O)[C@H](CCN)NC(=O)[C@H](CCC(N)=O)NC(=O)[C@H](Cc2cncnc2)NC(=O)[C@@](C)(CO)NC(=O)[C@H](Cc2c[nH]c3ccccc23)NC(=O)[C@H](CO)NC(=O)C(C)(C)NC1=O [Example 340] (cyclo([Bip][4Pal][Phe(4-COOH)]G[Pro(cis-4-F)][Trp(βS-Me,4-F)][Aib]SW[d(αMeS)][Ala(pyrimidin-5-yl)]Q[Dab]G[dPro(4R-(4-pyridylmethyl))]))",21,–
C[C@H](O)[C@@H]1NC(=O)[C@@](C)(CC(=O)O)NC(=O)[C@H](Cc2c[nH]c3ccccc23)NC(=O)[C@H](CO)NC(=O)C(C)(C)NC(=O)[C@H]([C@@H](C)c2c[nH]c3cccc(Cl)c23)NC(=O)[C@@H]2C[C@H](F)CN2C(=O)CNC(=O)[C@H](Cc2ccc(C(=O)O)cc2)NC(=O)[C@H](Cc2ccncc2)NC(=O)[C@H](Cc2ccc(-c3ccc(C(=O)O)cc3)cc2)NC(=O)[C@H]2C[C@@H](Cc3ccncc3)CN2C(=O)CNC(=O)[C@H](CCN)NC(=O)[C@H](CCC(N)=O)NC1=O [Example 358] (cyclo([Bip(4'-COOH)][4Pal][Phe(4-COOH)]G[Pro(cis-4-F)][Trp(4-Cl)(βS-Me)][Aib]SW[d(αMeD)][aThr]Q[Dab]G[dPro(4R-(4-pyridylmethyl))])),13,–
